Reference: patent US7491819B1 (priority 2004, dated 2009)

The molecules below were run against T1, HIV-integrase (Human immunodeficiency virus type 1 group M subtype B, UniProt P12497) (assay: HIV-Integrase Inhibition Activity (SPA bead strand-transfer assay)). Conditions: Table 1; read-out: Activity (HIV-integrase inhibition, IC50 class).
T1 construct: Recombinant integrase (0.26 ng) was incubated with the beads
Assay type: biochemical
Outline: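 Strand-transfer read-out: CPM from P33-labelled target DNA (0.1 fmol) joined to bead-bound biotin substrate DNA (5 pmole), with EDTA stop at 10 mM final. Integrase (0.26 ng) prebound to streptavidin SPA beads 90 min, 37° C, and washed before adding inhibitor.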

Row | SMILES | IC50 [nM]
1 | CC1(C)OCCn2c1nc(C(=O)NCc1cccc(Cl)c1F)c(O)c2=O [Example 266, Pyrimido[2,1-c][1,4]oxazine-2-carboxamide, N-[(3-chloro-2-fluorophenyl)methyl]-4,6,7,9-tetrahydro-3-hydroxy-9,9-dimethyl-4-oxo-] | 2 to 100
2 | CC1(C)OCCn2c1nc(C(=O)NCc1cc(F)ccc1F)c(O)c2=O [Example 224, Pyrimido[2,1-c][1,4]oxazine-2-carboxamide, N-[(2,5-difluorophenyl)methyl]-4,6,7,9-tetrahydro-3-hydroxy-9,9-dimethyl-4-oxo-] | 2 to 100
3 | CC1(C)OCCn2c1nc(C(=O)NCc1ccc(F)cc1-c1ccccc1)c(O)c2=O [Example 74, Pyrimido[2,1-c][1,4]oxazine-2-carboxamide, N-[(5-fluoro[1,1′-biphenyl]-2-yl)methyl]-4,6,7,9-tetrahydro-3-hydroxy-9,9-dimethyl-4-oxo-] | 2 to 100
4 | COC(=O)c1ncn(-c2cc(F)ccc2CNC(=O)c2nc3n(c(=O)c2O)CCOC3(C)C)n1 [Example 60, 1H-1,2,4-Triazole-3-carboxylic acid, 1-[5-fluoro-2-[[[(4,6,7,9-tetrahydro-3-hydroxy-9,9-dimethyl-4-oxopyrimido[2,1-c][1,4]oxazin-2-yl)carbonyl]amino]methyl]phenyl], methyl este] | 2 to 100
5 | CC1(C)OCCn2c1nc(C(=O)NCc1cc(F)cc(F)c1)c(O)c2=O [Example 146, Pyrimido[2,1-c][1,4]oxazine-2-carboxamide, N-[(3,5-difluorophenyl)methyl]-4,6,7,9-tetrahydro-3-hydroxy-9,9-dimethyl-4-oxo-] | 2 to 100
6 | CCC1OCCn2c1nc(C(=O)NCc1ccc(F)c(C)c1)c(O)c2=O (centres unmarked) [Example 11, Pyrimido[2,1-c][1,4]oxazine-2-carboxamide, 9-ethyl-N-[(4-fluoro-3-methylphenyl)methyl]-4,6,7,9-tetrahydro-3-hydroxy-4-oxo-] | 2 to 100
7 | CC1(C)OCCn2c1nc(C(=O)NCc1cccc3c1NC(=O)C3)c(O)c2=O [Example 94] | 2 to 100
8 | CC1(C)OCCn2c1nc(C(=O)NCc1cccc(F)c1N1CCCCS1(=O)=O)c(O)c2=O [Example 55, Pyrimido[2,1-c][1,4]oxazine-2-carboxamide, N-[[3-fluoro-2-(tetrahydro-1,1-dioxido-2H-1,2-thiazin-2-yl)phenyl]methyl]-4,6,7,9-tetrahydro-3-hydroxy-9,9-dimethyl-4-oxo-] | 2 to 100
9 | CC1(C)OCCn2c1nc(C(=O)NCc1cccc3ccsc13)c(O)c2=O [Example 138, Pyrimido[2,1-c][1,4]oxazine-2-carboxamide, N-(benzo[b]thien-7-ylmethyl)-4,6,7,9-tetrahydro-3-hydroxy-9,9-dimethyl-4-oxo-] | 2 to 100
10 | CC1(C)OCCn2c1nc(C(=O)NCc1cccc(F)c1-n1cncn1)c(O)c2=O [Example 56, Pyrimido[2,1-c][1,4]oxazine-2-carboxamide, N-[[3-fluoro-2-(1H-1,2,4-triazol-1-yl)phenyl]methyl]-4,6,7,9-tetrahydro-3-hydroxy-9,9-dimethyl-4-oxo-] | 2 to 100
11 | CC1(C)OCCn2c1nc(C(=O)NCc1ccc(F)cc1S(N)(=O)=O)c(O)c2=O [Example 110, Pyrimido[2,1-c][1,4]oxazine-2-carboxamide, N-[[2-(aminosulfonyl)-4-fluorophenyl]methyl]-4,6,7,9-tetrahydro-3-hydroxy-9,9-dimethyl-4-oxo-] | 2 to 100
12 | CC(=O)N(C)c1cc(F)ccc1CNC(=O)c1nc2n(c(=O)c1O)CCOC2(C)C [Example 136, Pyrimido[2,1-c][1,4]oxazine-2-carboxamide, N-[[2-(acetylmethylamino)-4-fluorophenyl]methyl]-4,6,7,9-tetrahydro-3-hydroxy-9,9-dimethyl-4-oxo-] | 2 to 100
13 | Cc1cc(F)ccc1CNC(=O)c1nc2n(c(=O)c1O)CCOC2(C)C [Example 39, Pyrimido[2,1-c][1,4]oxazine-2-carboxamide, N-[(4-fluoro-2-methylphenyl)methyl]-4,6,7,9-tetrahydro-3-hydroxy-9,9-dimethyl-4-oxo-] | 2 to 100
14 | CC1(C)OCCCn2c1nc(C(=O)NCc1ccc(F)cc1-n1cncn1)c(O)c2=O [Example 117, 6H-Pyrimido[2,1-c][1,4]oxazepine-2-carboxamide, N-[[4-fluoro-2-(1H-1,2,4-triazol-1-yl)phenyl]methyl]-4,7,8,10-tetrahydro-3-hydroxy-10,10-dimethyl-4-oxo-] | 2 to 100
15 | CC1(C)OCCCn2c1nc(C(=O)NCc1ccc(F)cc1S(C)(=O)=O)c(O)c2=O [Example 202, 6H-Pyrimido[2,1-c][1,4]oxazepine-2-carboxamide, N-[[4-fluoro-2-(methylsulfonyl)phenyl]methyl]-4,7,8,10-tetrahydro-3-hydroxy-10,10-dimethyl-4-oxo-] | 2 to 100
16 | CCC1OCCn2c1nc(C(=O)NCc1ccc(F)c(Cl)c1)c(O)c2=O (centres unmarked) [Example 14, Pyrimido[2,1-c][1,4]oxazine-2-carboxamide, N-[(3-chloro-4-fluorophenyl)methyl]-9-ethyl-4,6,7,9-tetrahydro-3-hydroxy-4-oxo-] | 2 to 100
17 | CC1(C)OCCn2c1nc(C(=O)NCc1ccc(F)cc1N1CCCCCC1=O)c(O)c2=O [Example 125, Pyrimido[2,1-c][1,4]oxazine-2-carboxamide, N-[[4-fluoro-2-(hexahydro-2-oxo-1H-azepin-1-yl)phenyl]methyl]-4,6,7,9-tetrahydro-3-hydroxy-9,9-dimethyl-4-oxo-] | 2 to 100
18 | Cc1ccc(-c2ccccc2CNC(=O)c2nc3n(c(=O)c2O)CCOC3(C)C)cc1 [Example 162, Pyrimido[2,1-c][1,4]oxazine-2-carboxamide, 4,6,7,9-tetrahydro-3-hydroxy-9,9-dimethyl-N-[(4′-methyl[1,1′-biphenyl]-2-yl)methyl]-4-oxo-] | 2 to 100
19 | CC1(C)OCCn2c1nc(C(=O)NCc1ccccn1)c(O)c2=O [Example 141, Pyrimido[2,1-c][1,4]oxazine-2-carboxamide, 4,6,7,9-tetrahydro-3-hydroxy-9,9-dimethyl-4-oxo-N-(2-pyridinylmethyl)-] | 2 to 100
20 | CNC(=O)c1cc(F)ccc1CNC(=O)c1nc2n(c(=O)c1O)CCOC2C (centres unmarked) [Example 9, Pyrimido[2,1-c][1,4]oxazine-2-carboxamide, N-[[4-fluoro-2-[(methylamino)carbonyl]phenyl]methyl]-4,6,7,9-tetrahydro-3-hydroxy-9-methyl-4-oxo-] | 2 to 100
21 | CC1(C)OCCn2c1nc(C(=O)NCc1ccc(F)cc1-c1cccc(=O)[nH]1)c(O)c2=O [Example 80, Pyrimido[2,1-c][1,4]oxazine-2-carboxamide, N-[[2-(1,6-dihydro-6-oxo-2-pyridinyl)-4-fluorophenyl]methyl]-4,6,7,9-tetrahydro-3-hydroxy-9,9-dimethyl-4-oxo-] | 2 to 100
22 | CC1(C)OCCn2c1nc(C(=O)NCc1cc(F)cc(C(F)(F)F)c1)c(O)c2=O [Example 237, Pyrimido[2,1-c][1,4]oxazine-2-carboxamide, N-[[3-fluoro-5-(trifluoromethyl)phenyl]methyl]-4,6,7,9-tetrahydro-3-hydroxy-9,9-dimethyl-4-oxo-] | 2 to 100
23 | CC1(C)OCCn2c1nc(C(=O)NCc1ccc(Cl)cc1)c(O)c2=O [Example 34, Pyrimido[2,1-c][1,4]oxazine-2-carboxamide, N-[(4-chlorophenyl)methyl]-4,6,7,9-tetrahydro-3-hydroxy-9,9-dimethyl-4-oxo-] | 2 to 100
